Source: patent US7851474B2, “Dipiperazinyl ketones and related analogues” (Neurogen Corporation, priority 2005, dated 2010)
pKi: −log10 of the molar value.

Each compound was assayed against T1, chimeric human H3 receptor (Homo sapiens, UniProt Q9Y5N1, E19D) (assay: Chimeric human H3 receptor GTP binding assay (agonist-stimulated GTP-gamma35S binding, Example 7)). Settings: Table II; assay of Example 7; "*" in Ki; read-out: Ki.
T1 construct: made in house; host or cells: Sf9 insect cells (baculovirus infection); P2 membrane preparation
T1 sequence (Q9Y5N1 with tags, fused parts or gaps E19D): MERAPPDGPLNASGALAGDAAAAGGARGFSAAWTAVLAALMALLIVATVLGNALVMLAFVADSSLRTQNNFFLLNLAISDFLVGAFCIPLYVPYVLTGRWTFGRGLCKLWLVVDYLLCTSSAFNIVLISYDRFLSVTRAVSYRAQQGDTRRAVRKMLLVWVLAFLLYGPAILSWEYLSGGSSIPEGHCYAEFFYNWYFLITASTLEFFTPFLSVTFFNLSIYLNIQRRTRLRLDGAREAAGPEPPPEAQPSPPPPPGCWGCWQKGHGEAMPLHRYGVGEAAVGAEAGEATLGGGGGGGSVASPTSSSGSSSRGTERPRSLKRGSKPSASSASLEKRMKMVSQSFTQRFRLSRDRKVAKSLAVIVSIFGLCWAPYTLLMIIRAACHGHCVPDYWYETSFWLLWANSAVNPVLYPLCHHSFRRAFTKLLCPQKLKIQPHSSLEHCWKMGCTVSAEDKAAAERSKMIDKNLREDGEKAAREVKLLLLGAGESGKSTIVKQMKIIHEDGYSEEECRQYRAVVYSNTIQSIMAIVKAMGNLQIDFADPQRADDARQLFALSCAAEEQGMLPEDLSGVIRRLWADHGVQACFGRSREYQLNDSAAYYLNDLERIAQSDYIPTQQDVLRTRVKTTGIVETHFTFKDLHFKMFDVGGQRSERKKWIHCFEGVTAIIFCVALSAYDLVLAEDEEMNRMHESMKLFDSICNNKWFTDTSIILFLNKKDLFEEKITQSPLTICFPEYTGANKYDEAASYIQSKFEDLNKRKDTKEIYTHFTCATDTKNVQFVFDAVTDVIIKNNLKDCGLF
Assay type: biochemical
How it was run: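 Sf9 membranes co-expressing the chimeric receptor and heterotrimeric G-protein subunits, 35 μg protein per tube, in pH 7.4 Tris buffer with 10 μM GDP. Test compounds at 10^−10 to 10^−6 M with 1 μM histamine, 60 min at room temperature. Filter-bound GTP-gamma^35S read by scintillation; IC50 from non-linear regression of dose-response curves.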
For `O=C(CN1CCN(c2cnc(-c3cccc4c3oc3ccccc34)cn2)CC1)N1CCN(C2CCC2)CC1` [Compound 956, 2-{4-[2-(4-cyclobutylpiperazin-1-yl)-2-oxoethyl]piperazin-1-yl}-5-dibenzo[b,d]furan-4-ylpyrazine], the pKi was over 6.00. Compound `COc1ccc(F)cc1-c1cnc(N2CCN(CC(=O)N3CCN(C4CCC4)CC3)CC2)cn1` [Compound 957, 2-{4-[2-(4-cyclobutylpiperazin-1-yl)-2-oxoethyl]piperazin-1-yl}-5-(5-fluoro-2-methoxyphenyl)pyrazine] has a pKi of over 6.00. Work on `COc1ccc(C)cc1-c1cnc(N2CCN(CC(=O)N3CCN(C4CCC4)CC3)CC2)cn1` [Compound 958, 2-{4-[2-(4-cyclobutylpiperazin-1-yl)-2-oxoethyl]piperazin-1-yl}-5-(2-methoxy-5-methylphenyl)pyrazine] yielded a pKi of over 6.00. With `O=C(CN1CCN(c2cnc(-c3ccccc3Oc3ccccc3)cn2)CC1)N1CCN(C2CCC2)CC1` [Compound 959, 2-{4-[2-(4-cyclobutylpiperazin-1-yl)-2-oxoethyl]piperazin-1-yl}-5-(2-phenoxyphenyl)pyrazine] the pKi was over 6.00. Compound `O=C(CN1CCN(c2cnc(-c3cc(F)ccc3F)cn2)CC1)N1CCN(C2CCC2)CC1` [Compound 960, 2-{4-[2-(4-cyclobutylpiperazin-1-yl)-2-oxoethyl]piperazin-1-yl}-5-(2,5-difluorophenyl)pyrazine] has a pKi of over 6.00. For `O=C(CN1CCN(c2cnc(-c3ccc(F)cc3F)cn2)CC1)N1CCN(C2CCC2)CC1` [Compound 961, 2-{4-[2-(4-cyclobutylpiperazin-1-yl)-2-oxoethyl]piperazin-1-yl}-5-(2,4-difluorophenyl)pyrazine], the pKi was over 6.00. `O=C(CN1CCN(c2cnc(-c3ccc(F)c(F)c3)cn2)CC1)N1CCN(C2CCC2)CC1` [Compound 962, 2-{4-[2-(4-cyclobutylpiperazin-1-yl)-2-oxoethyl]piperazin-1-yl}-5-(3,4-difluorophenyl)pyrazine] gave a pKi of over 6.00. Compound `O=C(CN1CCN(c2cnc(-c3cc(Cl)cc(Cl)c3)cn2)CC1)N1CCN(C2CCC2)CC1` [Compound 963, 2-{4-[2-(4-cyclobutylpiperazin-1-yl)-2-oxoethyl]piperazin-1-yl}-5-(3,5-dichlorophenyl)pyrazine] has a pKi of over 6.00. For `O=C(CN1CCN(c2cnc(-c3ccc(Cl)c(Cl)c3)cn2)CC1)N1CCN(C2CCC2)CC1` [Compound 964, 2-{4-[2-(4-cyclobutylpiperazin-1-yl)-2-oxoethyl]piperazin-1-yl}-5-(3,4-dichlorophenyl)pyrazine], the pKi was over 6.00. `O=C(CN1CCN(c2cnc(-c3cc(F)cc(F)c3)cn2)CC1)N1CCN(C2CCC2)CC1` [Compound 965, 2-{4-[2-(4-cyclobutylpiperazin-1-yl)-2-oxoethyl]piperazin-1-yl}-5-(3,5-difluorophenyl)pyrazine] gave a pKi of over 6.00. `O=C(CN1CCN(c2cnc(-c3cccc(F)c3F)cn2)CC1)N1CCN(C2CCC2)CC1` [Compound 966, 2-{4-[2-(4-cyclobutylpiperazin-1-yl)-2-oxoethyl]piperazin-1-yl}-5-(2,3-difluorophenyl)pyrazine] was tested, and the pKi was over 6.00. `O=C(CN1CCN(c2cnc(-c3cccc(Cl)c3Cl)cn2)CC1)N1CCN(C2CCC2)CC1` [Compound 967, 2-{4-[2-(4-cyclobutylpiperazin-1-yl)-2-oxoethyl]piperazin-1-yl}-5-(2,3-dichlorophenyl)pyrazine] was tested, and the pKi was over 6.00. Work on `O=C(CN1CCN(c2cnc(-c3ccc(Cl)cc3Cl)cn2)CC1)N1CCN(C2CCC2)CC1` [Compound 968, 2-{4-[2-(4-cyclobutylpiperazin-1-yl)-2-oxoethyl]piperazin-1-yl}-5-(2,4-dichlorophenyl)pyrazine] yielded a pKi of over 6.00. Compound `O=C(CN1CCN(c2cnc(-c3ccccc3C(F)(F)F)cn2)CC1)N1CCN(C2CCC2)CC1` [Compound 969, 2-{4-[2-(4-cyclobutylpiperazin-1-yl)-2-oxoethyl]piperazin-1-yl}-5-[2-(trifluoromethyl)phenyl] pyrazine] has a pKi of over 6.00. `COc1cccc(OC)c1-c1cnc(N2CCN(CC(=O)N3CCN(C4CCC4)CC3)CC2)cn1` [Compound 970, 2-{4-[2-(4-cyclobutylpiperazin-1-yl)-2-oxoethyl]piperazin-1-yl}-5-(2,6-dimethoxyphenyl) pyrazine] showed a pKi of over 6.00. `CC(C)c1ccccc1-c1cnc(N2CCN(CC(=O)N3CCN(C4CCC4)CC3)CC2)cn1` [Compound 971, 2-{4-[2-(4-cyclobutylpiperazin-1-yl)-2-oxoethyl]piperazin-1-yl}-5-(2-isopropylphenyl)pyrazine] gave a pKi of over 6.00. Work on `Cc1cccc(C)c1-c1cnc(N2CCN(CC(=O)N3CCN(C4CCC4)CC3)CC2)cn1` [Compound 972, 2-{4-[2-(4-cyclobutylpiperazin-1-yl)-2-oxoethyl]piperazin-1-yl}-5-(2,6-dimethylphenyl)pyrazine] yielded a pKi of over 6.00. For `O=C(CN1CCN(c2cnc(-c3cc(Cl)ccc3Cl)cn2)CC1)N1CCN(C2CCC2)CC1` [Compound 973, 2-{4-[2-(4-cyclobutylpiperazin-1-yl)-2-oxoethyl]piperazin-1-yl}-5-(2,5-dichlorophenyl)pyrazine], the pKi was over 6.00. `Cc1cc(C)c(-c2cnc(N3CCN(CC(=O)N4CCN(C5CCC5)CC4)CC3)cn2)c(C)c1` [Compound 974, 2-{4-[2-(4-cyclobutylpiperazin-1-yl)-2-oxoethyl]piperazin-1-yl}-5-mesitylpyrazine] was tested, and the pKi was over 6.00. Compound `O=C(CN1CCN(c2cnc(-c3ccc(C(F)(F)F)cc3)cn2)CC1)N1CCN(C2CCC2)CC1` [Compound 975, 2-{4-[2-(4-cyclobutylpiperazin-1-yl)-2-oxoethyl]piperazin-1-yl}-5-[4-(trifluoromethyl)phenyl] pyrazine] has a pKi of over 6.00. With `O=C(CN1CCN(c2cnc(-c3cccc(C(F)(F)F)c3)cn2)CC1)N1CCN(C2CCC2)CC1` [Compound 976, 2-{4-[2-(4-cyclobutylpiperazin-1-yl)-2-oxoethyl]piperazin-1-yl}-5-[3-(trifluoromethyl)phenyl] pyrazine] the pKi was over 6.00. In the case of `O=C(CN1CCN(c2ncc(F)cn2)CC1)N1CCN(C2CCCC2)CC1` [Compound 977, 2-{4-[2-(4-cyclopentylpiperazin-1-yl)-2-oxoethyl]piperazin-1-yl}-5-fluoropyrimidine], the pKi was over 6.00. For `O=C(CN1CCN(c2nc3ccccc3n2Cc2ccc(F)cc2)CC1)N1CCN(C2CCCC2)CC1` [Compound 978, 2-{4-[2-(4-cyclopentylpiperazin-1-yl)-2-oxoethyl]piperazin-1-yl}-1-(4-fluorobenzyl)-1H-benzimidazole], the pKi was over 6.00. With `CCC(C)N1CCN(C(=O)CN2CCN(c3ncc(F)cn3)CC2)CC1` (stereo not drawn) [Compound 979, 2-{4-[2-(4-sec-butylpiperazin-1-yl)-2-oxoethyl]piperazin-1-yl}-5-fluoropyrimidine] the pKi was over 6.00. `O=C(CN1C=CC2(CC1)c1ccccc1C(=O)N2Cc1ccccc1)N1CCN(C2CCC2)CC1` (stereo not drawn) [Compound 980, 2-benzyl-1′-[2-(4-cyclobutylpiperazin-1-yl)-2-oxoethyl]-2′,′3-dihydro-1′H-spiro[isoindole-1,4′-pyridin]-3(2H)-one] gave a pKi of over 6.00. `O=C(CN1CCC2(CC1)c1ccccc1C(=O)N2Cc1ccccc1)N1CCN(C2CCC2)CC1` [Compound 981, 2-benzyl-1′-[2-(4-cyclobutylpiperazin-1-yl)-2-oxoethyl]spiro[isoindole-1,4′-piperidin]-3(2H)-one] was tested, and the pKi was over 6.00. In the case of `O=C(CN1CCC2(CC1)CC(=O)N(Cc1ccccc1)C2=O)N1CCN(C2CCC2)CC1` [Compound 982, 2-benzyl-8-[2-(4-cyclobutylpiperazin-1-yl)-2-oxoethyl]-2,8-diazaspiro[4.5]decane-1,3-dione], the pKi was over 6.00. For `O=C(CN1CCN(c2cnc(Br)cn2)CC1)N1CCN(C2CCC2)CC1` [Compound 983, 2-bromo-5-{4-[2-(4-cyclobutylpiperazin-1-yl)-2-oxoethyl]piperazin-1-yl}pyrazine], the pKi was over 6.00. `O=C(CN1CCC2(CC1)c1ccccc1C(=O)N2C1CCC1)N1CCN(C2CCC2)CC1` [Compound 984, 2-cyclobutyl-1′-[2-(4-cyclobutylpiperazin-1-yl)-2-oxoethyl]spiro[isoindole-1,4′-piperidin]-3(2H)-one] showed a pKi of over 6.00. `O=C(CN1CCN(c2ccc(-c3ccc4c(c3)OCO4)nn2)CC1)N1CCN(C2CCC2)CC1` [Compound 986, 3-(1,3-benzodioxol-5-yl)-6-{4-[2-(4-cyclobutylpiperazin-1-yl)-2-oxoethyl]piperazin-1-yl}pyridazine] showed a pKi of over 6.00. `O=C(CN1CCN(c2ccc(-c3ccc(F)c(Cl)c3)nn2)CC1)N1CCN(C2CCC2)CC1` [Compound 987, 3-(3-chloro-4-fluorophenyl)-6-{4-[2-(4-cyclobutylpiperazin-1-yl)-2-oxoethyl]piperazin-1-yl}pyridazine] gave a pKi of over 6.00. Compound `O=C(CN1CCN(c2ccc(-c3cccc(Cl)c3)nn2)CC1)N1CCN(C2CCC2)CC1` [Compound 988, 3-(3-chlorophenyl)-6-{4-[2-(4-cyclobutylpiperazin-1-yl)-2-oxoethyl]piperazin-1-yl}pyridazine] has a pKi of over 6.00. In the case of `CCCCc1ccc(-c2ccc(N3CCN(CC(=O)N4CCN(C5CCC5)CC4)CC3)nn2)cc1` [Compound 989, 3-(4-butylphenyl)-6-{4-[2-(4-cyclobutylpiperazin-1-yl)-2-oxoethyl]piperazin-1-yl}pyridazine], the pKi was over 6.00. Compound `O=C(CN1CCN(c2ccc(-c3ccc(Cl)c(F)c3)nn2)CC1)N1CCN(C2CCC2)CC1` [Compound 990, 3-(4-chloro-3-fluorophenyl)-6-{4-(2-(4-cyclobutylpiperazin-1-yl)-2-oxoethyl]piperazin-1-yl}pyridazine] has a pKi of over 6.00. Work on `O=C(CN1CCN(c2ccc(-c3ccc(Cl)cc3)nn2)CC1)N1CCN(C2CCC2)CC1` [Compound 991, 3-(4-chlorophenyl)-6-{4-[2-(4-cyclobutylpiperazin-1-yl)-2-oxoethyl]piperazin-1-yl}pyridazine] yielded a pKi of over 6.00. Compound `CC(C)(C)c1ccc(-c2ccc(N3CCN(CC(=O)N4CCN(C5CCC5)CC4)CC3)nn2)cc1` [Compound 992, 3-(4-tert-butylphenyl)-6-{4-[2-(4-cyclobutylpiperazin-1-yl)-2-oxoethyl]piperazin-1-yl}pyridazine] has a pKi of over 6.00.
